Values after ≈ are worked out from the molar mass of the structure shown.

The text below walks through data of patent publication US10526343B2, “Heterocyclic systems and pharmaceutical applications thereof” (University of Sharjah, priority 2018, dated 2020).

The subject of one experiment is MRSA-1. The experiment is described as follows: Time-kill study. The format is cell-based, Staphylococcus aureus. How it is done: Time-kill study: Compound 1o was tested for the time required to kill the bacterial strain MRSA-1. A time-kill assay was performed by the broth micro-dilution method in accordance with the CLSI guidelines. Inoculum suspensions with approximately 5×10^5 CFU/mL of exponentially growing bacterial cells were incubated in each well of a 96-well plate. […] Aliquots of 20 μL were removed from the inoculum culture after timed intervals of incubation (i.e. 0, 30 minutes, 1, 2, 4, 6, 8, and 24 hours), and serial 10-fold dilutions were prepared in 0.85% sodium chloride solution. Then, 10-100 μL of each dilution (as appropriate) were spread on the surface of Mueller-Hinton agar plates and incubated at 37° C. for 24 hours. Plate count technique was used to determine the number of viable cells for each time point. The experiments were performed in triplicate. Meropenem and ciprofloxacin were used as quality control antibiotics.

Another experiment has as its system S. aureus (ATCC 25923). The experiment is described as follows: MIC by broth microdilution. The format is cell-based. Conditions: Staphylococcus aureus, ATCC25923. Here is the method: (§1) Bacteria of the genus Staphylococcus were selected for MIC investigation due to its clinical importance. Compounds showing activity against S. aureus (ATCC 25923) were tested against 10 multidrug-resistant strains of Staphylococcus species, including: clinical isolates methicillin-resistant Staphylococcus aureus (MRSA) strains MRSA-1, MRSA-2, and MRSA-3, and environmental isolates S. saprophyticus (strains UDH-1, UDH-2, UDH-3 and UDH-4), S. haemolyticus (strains UDH-6 and UDH-7), and S. epidermidis strain UDH-5.
(§2) A broth microdilution method was used to measure MIC according to the Clinical and Laboratory Standards Institute guidelines. Two-fold serial dilutions of the test compound (8 concentrations ranged between 100-0.78 μg/mL) were tested. Two reference antibiotics were used as quality controls (ciprofloxacin and amikacin). In each experiment, solvent (DMSO) was used as a negative control, un-treated control (composing of bacteria in Mueller-Hinton broth) was used as a growth control, blank (culture media alone) was used as sterility control. The 96-well microplate with the test compounds was incubated for 20 hours at 37° C. Turbidity in wells indicated bacterial growth. […] For the definite determination of MIC, CellTiter-Blue® Cell Viability Assay (Promega, USA) was used (as above). The MIC was defined as the lowest compound concentration that prevented the color change of the Cell Viability solution (absence of bacterial growth; thus, suspension remained blue in color). For the definite determination of MIC, CellTiter-Blue® Cell Viability Assay (Promega, USA) was used (as above). To each well of the 96-well microplate, 20 μL of the Cell Viability Assay solution was added to the overnight (20 hours culture) and incubated at 37° C. for 4 hours. After the end of the incubation, pink and blue colors were used to differentiate viable from dead bacterial suspensions, respectively. The MIC was defined as the lowest compound concentration that prevented the color change.
(Dilution methods test growth across graded concentrations, often in twofold steps.)

The test system of experiment [1] is UDH-3 (environmental isolate, S. saprophyticus). The experiment is described as follows: MIC by broth microdilution. The format is cell-based. Conditions: Staphylococcus saprophyticus; environmental isolate. How it is done:
as §1
(§3) All these strains were resistant to at least three antibiotics from different classes, as confirmed by a disk diffusion assay.
as §2

Experiment [2] has as its system UDH-7 (environmental isolate, S. haemolyticus). The experiment is described as follows: MIC by broth microdilution. To be noted: Staphylococcus haemolyticus; environmental isolate. The format is cell-based. Here is the method: as §1, §3, §2
For experiment [3], the system named is UDH-6 (environmental isolate, S. haemolyticus). The experiment is described as follows: MIC by broth microdilution. The class given is cell-based. To be noted: Staphylococcus haemolyticus; environmental isolate. How it is done: as §1, §3, §2
The subject of experiment [4] is UDH-1 (environmental isolate, S. saprophyticus). The experiment is described as follows: MIC by broth microdilution. The class given is cell-based. Conditions: for MIC: Staphylococcus saprophyticus, environmental isolate. How it is done: as §1, §3, §2
The subject of experiment [5] is UDH-5 (environmental isolate, S. epidermidis). The experiment is described as follows: MIC by broth microdilution. The format is cell-based. To be noted: Staphylococcus epidermidis. Here is the method:
as §1, §3, §2

In experiment [6] the test system is UDH-4 (environmental isolate, S. saprophyticus). The experiment is described as follows: MIC by broth microdilution. The format is cell-based. Conditions: Staphylococcus saprophyticus. Here is the method:
as §1, §3, §2

Experiment [7] concerns UDH-2 (environmental isolate, S. saprophyticus). The experiment is described as follows: MIC by broth microdilution. The format is cell-based. To be noted: Staphylococcus saprophyticus. Here is the method:
as §1, §3, §2

The subject of experiment [8] is MRSA-1 (clinical isolate, methicillin-resistant Staphylococcus aureus). The experiment is described as follows: MIC by broth microdilution. Conditions: Staphylococcus aureus, MRSA; clinical isolate. The class given is cell-based. Here is the method:
(§4) Bacteria of the genus Staphylococcus were selected for MIC investigation due to its clinical importance.
as §2, with “Two reference antibiotics were used as quality controls (ciprofloxacin and amikacin).” left out

Experiment [9] deals with MRSA-3 (clinical isolate, methicillin-resistant Staphylococcus aureus). The experiment is described as follows: MIC by broth microdilution. The class given is cell-based. Here is the method:
as §4
as §2, with “Two reference antibiotics were used as quality controls (ciprofloxacin and amikacin).” left out

Experiment [10] deals with MRSA-2 (clinical isolate, methicillin-resistant Staphylococcus aureus). The experiment is described as follows: MIC by broth microdilution. The format is cell-based. How it is done: as §4
as §2, with “Two reference antibiotics were used as quality controls (ciprofloxacin and amikacin).” left out

The subject of experiment [11] is Enterococcus faecalis (ATCC 29212). The experiment is described as follows: Cell viability assay (resazurin) screening for antibacterial activity. Set-up: key: Positive: A positive result indicates antibacterial activity expressed as growth inhibition; Negative: a negative result indicates no antibacterial activity expressed as bacterial growth at the tested concentration. The class given is cell-based. To be noted: single high concentration of 1 mg/mL. (In general: Resazurin is reduced to fluorescent resorufin, in cell work by metabolically active cells.)

Experiment [12] relates to Escherichia coli (ATCC 25922). Described as above. Conditions: single high concentration of 1 mg/mL. More on the design: key: Positive: A positive result indicates antibacterial activity expressed as growth inhibition; Negative: a negative result indicates no antibacterial activity expressed as bacterial growth at the tested concentration. The format is cell-based.
Experiment [13] has as its system Bacillus subtilis (environmental isolate). Described as above. The class given is cell-based. Set-up: key: Positive: A positive result indicates antibacterial activity expressed as growth inhibition; Negative: a negative result indicates no antibacterial activity expressed as bacterial growth at the tested concentration. Conditions: single high concentration of 1 mg/mL.

Experiment [14] concerns Staphylococcus aureus (ATCC 25923). The description is as above. The format is cell-based. More on the design: key: Positive: A positive result indicates antibacterial activity expressed as growth inhibition; Negative: a negative result indicates no antibacterial activity expressed as bacterial growth at the tested concentration. Conditions: single high concentration of 1 mg/mL.

Experiment [15] deals with Pseudomonas aeruginosa (ATCC 27853). Described as above. The class given is cell-based. Set-up: key: Positive: A positive result indicates antibacterial activity expressed as growth inhibition; Negative: a negative result indicates no antibacterial activity expressed as bacterial growth at the tested concentration. To be noted: single high concentration of 1 mg/mL.

Consider `C[C@@H](O)[C@H]1C(=O)N2C(C(=O)O)=C(S[C@@H]3CN[C@H](C(=O)N(C)C)C3)[C@H](C)[C@H]12` [meropenem, reference compound], for which the entries for the “time of exposure at which killing was achieved” value with MRSA-1 (8 μg/mL), in the experiment with MRSA-1 (16 μg/mL) and with MRSA-1 (2-4 μg/mL) were 8 h, 6 h and 24 h, respectively. In the experiment on MRSA-1 (32-64 μg/mL), the “time of exposure at which killing was achieved (complete inhibition of bacterial growth)” value came out at 4 h.
Turning to `O=C(O)c1cn(C2CC2)c2cc(N3CCNCC3)c(F)cc2c1=O` [Ciprofloxacin, ciprofloxacin, reference compound], the “time of exposure at which killing was achieved (complete growth inhibition)” value with MRSA-1 (32-256 μg/mL) was 24 h. Also, the MIC against S. aureus (ATCC 25923) was 0.5 µg/mL (≈ 1.51 µM); in experiment [1], 64 µg/mL (≈ 193 µM); in experiment [2], 64 µg/mL (≈ 193 µM); in experiment [3] it was 64 µg/mL (≈ 193 µM); in experiment [4], 64 µg/mL (≈ 193 µM); in experiment [5], < 0.25 µg/mL. Moreover, the MIC in experiment [6] and in [7] was 64 µg/mL (≈ 193 µM) each time.
With `COC(=O)CC1COc2c(cc3c4c2CCCN4CCC3)-c2c(NC(C)(C)C)n3c(-c4cc(OC)ccc4OC)csc3[n+]21` (stereo not shown) [Compound 1t], the MIC in experiment [8] is 6.25 µg/mL; in [9], 3.12 µg/mL; in experiment [10], 3.12 µg/mL; against S. aureus (ATCC 25923), 3.12 µg/mL; in experiment [1], 6.25 µg/mL; in [2], 12.5 µg/mL. For the same compound, the MIC was 12.5 µg/mL in [3]; 6.25 µg/mL in [4]; 3.12 µg/mL in experiment [5]; 6.25 µg/mL in experiment [6]; 6.25 µg/mL in experiment [7]. Moreover, the “antibacterial activity, Enterococcus faecalis” value in experiment [11] is “Positive”. In addition, the “antibacterial activity, Escherichia coli” value in [12] is on record as “Negative”. Moreover, the “antibacterial activity, Bacillus subtilis” value in experiment [13] is “Positive”. The “antibacterial activity, Staphylococcus aureus” value in [14] is recorded as “Positive”. For the same compound, the “times lower than MIC of ciprofloxacin” value in experiment [4] (UDH-1) is given as “approximately 10 times”. Moreover, the “antibacterial activity, Pseudomonas aeruginosa” value in [15] was “Negative”.
On to `COC(=O)CC1COc2c(cc3c4c2CCCN4CCC3)-c2c(N)n3c(-c4ccc(F)cc4)c(C)sc3[n+]21` (stereo not shown) [Compound 2b], for which the MIC worked out at 12.5 µg/mL in [8]; 12.5 µg/mL in [9]; 12.5 µg/mL in experiment [10]; 12.5 µg/mL in the experiment with S. aureus (ATCC 25923); 25 µg/mL in experiment [1]; 25 µg/mL in [2]. Also, the minimal inhibitory concentration (MIC) in [3] was 25 µg/mL; in experiment [4], 12.5 µg/mL; in experiment [5] it was 6.25 µg/mL; in experiment [6] it was 12.5 µg/mL; in experiment [7], 12.5 µg/mL. Besides, in [11], the “antibacterial activity, Enterococcus faecalis” value is reported as “Positive”. Further, the “antibacterial activity, Escherichia coli” value in [12] is on record as “Negative”. In experiment [13], the “antibacterial activity, Bacillus subtilis” value is listed as “Positive”. In addition, the “antibacterial activity, Staphylococcus aureus” value in experiment [14] is “Positive”. Besides, in [15], the “antibacterial activity, Pseudomonas aeruginosa” value is “Negative”.

Broadly, the MIC is the lowest concentration found to suppress growth.
